Results: patent publication US20160304461A1, “QUINOLONE COMPOUND AND PHARMACEUTICAL COMPOSITION” (OTSUKA PHARMACEUTICAL CO., LTD., priority 2007, published 2016)

Experiments:
[1] = system: human neuroblastoma cell lines SH-SY5Y; assay: Improvement of mitochondrial dysfunction in MPP+-treated SH-SY5Y cells (Alamar Blue mitochondrial oxidation reduction activity); assay type: cell-based; settings: SH-SY5Y cells in 1.5 mM MPP+ medium, relative to cells in DMSO alone = 100%, read-out: Fluorescence Intensity (%); for activity at 0.01 µg/mL: test compound 0.01 μg/ml; for activity at 0.03 µg/mL: test compound 0.03 μg/ml; for activity at 0.1 µg/mL: test compound 0.1 μg/ml; for activity at 0.3 µg/mL: test compound 0.3 μg/ml; for activity at 1 µg/mL: test compound 1 μg/ml
Procedure: Evaluation of Improvement of Mitochondrial Dysfunction using Human Neuroblastoma Cell Lines SH-SY5Y Treated with 1-methyl-4-phenylpyridinium (MPP^+)
In human neuroblastoma cell lines SH-SY5Y in which mitochondrial activity was injured by MPP^+ treatment (Bollimuntha S. et al., J Biol Chem, 280, 2132-2140 (2005) and Shang T. et al., J Biol Chem, 280, 34644-34653 (2005)), improvement of the mitochondrial dysfunction was evaluated on the basis of the measurement value of the mitochondrial oxidation reduction activity using Alamar Blue fluorescent dye after the compound addition (Nakai M. et. al, Exp Neurol, 179, 103-110 (2003)).
The human neuroblastoma cell lines SH-SY5Y were cultured in Dulbecco's Modified Eagle's Medium containing 10% fetal bovine serum (DMEM containing 50 units/ml penicillin and 50 μg/ml streptomycin as antibiotics) at 37° C. in the presence of 5% carbon dioxide. Cells were scattered on a poly-D-lysine-coated 96-well black plate at a concentration of 3-6×10^4 cells/cm^2 (medium amount: 100 μl/well), and cultured in the above medium for two days. Further, the medium was changed to a DMEM containing a 1% N2 supplement (N2-DMEM) or to a medium (100 μl/well) in which 1.5 mM MPP^+ was dissolved. The cells were cultured therein for 39 to 48 hours, and then subjected to a mitochondrial oxidation reduction activity measurement system. A sample compound that had been previously dissolved in dimethyl sulfoxide (DMSO) was diluted with N2-DMEM, and added in a volume of 10 μl/well 24 hours before the activity measurement (final compound concentration: 0.01 to 1 μg/ml).
After removal of the medium by suction, a balanced salt solution containing 10% Alamar Blue (154 mM sodium chloride, 5.6 mM potassium chloride, 2.3 mM calcium chloride, 1.0 mM magnesium chloride, 3.6 mM sodium bicarbonate, 5 mM glucose, 5 mM HEPES, pH 7.2) was added in a volume of 100 μl/well, and reacted in an incubator at 37° C. for 1 hour. The fluorescent intensity was detected using a fluorescence detector (a product of Hamamatsu Photonics K.K., excitation wavelength 530 nm, measurement wavelength 580 nm) to thereby measure the mitochondrial oxidation reduction activity.
The fluorescent intensity of the well of the cells cultured in a medium containing MPP^+ and in each of the sample compounds was relatively evaluated based on a 100% fluorescent intensity of the well of the cells cultured in a medium containing DMSO alone (final concentration: 0.1%).

| Compound | activity at 0.01 µg/mL [1] [%] | activity at 0.03 µg/mL [1] [%] | activity at 0.1 µg/mL [1] [%] | activity at 0.3 µg/mL [1] [%] | activity at 1 µg/mL [1] [%] | melting point [°C] |
| --- | --- | --- | --- | --- | --- | --- |
| CCCOc1ccc(F)c2c(=O)c(-c3ccc(N(C)C)cc3)c[nH]c12 [Example 61, 3-(4-Dimethylaminophenyl)-5-fluoro-8-propoxy-1H-quinolin-4-one] | 70 | 65 | 85 | 80 | 86 | 206 to 207 |
| COc1ccc(-c2c[nH]c3c(OCC4CC4)ccc(F)c3c2=O)cc1 [Example 24, 8-Cyclopropylmethoxy-5-fluoro-3-(4-methoxyphenyl)-1H-quinolin-4-one] | 60 | 70 | 82 | 78 | 84 | 190 to 191 |
| CCCSc1ccc(F)c2c(=O)c(-c3ccc(OC)cc3)c[nH]c12 [Example 40, 5-Fluoro-3-(4-methoxyphenyl)-8-propylsulfanyl-1H-quinolin-4-one] | 60 | 64 | 76 | 70 | 72 | 173 to 174 |
| COc1ccc(-c2c[nH]c3c(-c4ccsc4)ccc(F)c3c2=O)cc1 [Example 87, 5-Fluoro-3-(4-methoxyphenyl)-8-thiophen-3-yl-1H-quinolin-4-one] | 63 | 66 | 79 | 63 | 51 | 183 to 184 |
| CCCOc1ccc(F)c2c(=O)c(-c3ccc(OC)nc3OC)c[nH]c12 [Example 64, 3-(2,6-Dimethoxypyridin-3-yl)-5-fluoro-8-propoxy-1H-quinolin-4-one] | 55 | 65 | 74 | 72 | 77 | 198 to 199 |
| COc1ccc(-c2c[nH]c3c(N(C)C4CCCCC4)ccc(F)c3c2=O)cc1 [Example 25, 8-(N-Cyclohexyl-N-methylamino)-5-fluoro-3-(4-methoxyphenyl)-1H-quinolin-4-one] | 46 | 56 | 66 | 50 | 24 | 224 to 225 |
| COc1ccc(-c2c[nH]c3c(OCCCC(F)(F)F)ccc(F)c3c2=O)cc1 [Example 31, 5-Fluoro-3-(4-methoxyphenyl)-8-(4,4,4-trifluorobutoxy)-1H-quinolin-4-one] | 45 | 45 | 57 | 59 | 48 | 171 to 172 |
| CCCOc1ccc(F)c2c(=O)c(-c3ccc(CC)cc3)c(C)[nH]c12 [Example 71, 3-(4-Ethylphenyl)-5-fluoro-2-methyl-8-propoxy-1H-quinolin-4-one] | 56 | 61 | 73 | 78 | 72 | 221 to 222 |
| CCCN(C)c1ccc(F)c2c(=O)c(-c3ccc(OC)cc3)c[nH]c12 [Example 30, 5-Fluoro-3-(4-methoxyphenyl)-8-(N-methyl-N-propylamino)-1H-quinolin-4-one] | 50 | 54 | 69 | 64 | 56 | 145 to 146 |
| CCCOc1ccc(F)c2c(=O)c(-c3ccc(OCC4CC4)cc3)c[nH]c12 [Example 35, 3-(4-Cyclopropylmethoxyphenyl)-5-fluoro-8-propoxy-1H-quinolin-4-one] | 75 | 88 | 99 | 95 | 65 | 162 to 163 |
| CCCOc1ccc(F)c2c(=O)c(-c3ccc(OC)cc3)c[nH]c12 [Example 6, 5-Fluoro-3-(4-methoxyphenyl)-8-propoxy-1H-quinolin-4-one] | 59 | 71 | 85 | 88 | 83 | 196 to 197 |
